The values below come from ChEMBL document CHEMBL3507680, “University of Dundee, Gates Library screen for HepG2 cell viability”.

The nature of the data set: Human HepG2 cell viability assay in 384 well format. It is filed as toxicity, cell-based. More on the design: dose 125 nL, time 70.5 hour; concentration not given beside the values. The settings on record: HepG2 cells, read-out: Inhibition.
For the compound `CC1(CNS(=O)(=O)c2cccc(C(=O)N3CCSCC3)c2)COC1`, the cytotoxicity at 70.5 h was -6.9%. Turning to `CCN1CCCC(C)(C(=O)NCCCc2nc(C)cs2)C1` (centres undefined), the cytotoxicity at 70.5 h is -10.4%.

For `O=C(O)[C@@H]1CN(C(=O)CSCC2CC2)C[C@H]1c1ccccn1`, the cytotoxicity at 70.5 h was -1.99%. As to `CC(C)C(C)N(C(=O)c1cc2c([nH]c1=O)CCCC2=O)C1CC1` (centres undefined), the cytotoxicity at 70.5 h is -7.9%. Next, `Cc1n[nH]c(C2CN(C(=O)c3cc(C4CC4)on3)CCO2)n1` (centres undefined): 17%; `CS(=O)(=O)N1CCC(Oc2ccc(C(=O)NCC3CCC3)cc2Cl)CC1`: -12.8%. Take `Cc1cc(NC(=O)C(C)Oc2ccc3c(c2)OCO3)no1` (centres undefined): the cytotoxicity at 70.5 h was -6.37%. For `O=C(N[C@H]1COC[C@@H]1N1CCCC1)c1csc(-c2cccs2)n1`, the cytotoxicity at 70.5 h is -10.9%. Next, `Cc1cc(O)c(OCC(=O)/N=c2\[nH]c(C)c(C)s2)cn1`: 5.16%; `CC(C)c1noc(OCc2cccc(S(=O)(=O)N(C)C)c2)n1`: -17.9%. Consider `CCc1ccsc1C(=O)N1CCN(C(=O)CC(F)(F)F)CC1`, for which the cytotoxicity at 70.5 h was 3.81%.

With `Cc1ncsc1CN1C[C@H](NC(=O)C2CCOCC2)[C@@H](C(C)C)C1`, the cytotoxicity at 70.5 h is -14.2%. On to `O=C(c1ccc(Cl)o1)N1CCCN(Cc2cscn2)CC1`, for which the cytotoxicity at 70.5 h was -5.01%. Next, `COc1ccccc1N1CC(NC(=O)c2cc(C(C)C)nn2C)CC1=O` (centres undefined): 12.6%. Take `O=C(CN(Cc1ccccc1)CC1CCOCC1)NC(=O)NC1CC1`: the cytotoxicity at 70.5 h is 11.8%.

Regarding `COCCN(Cc1ccco1)c1ncc(C#N)cc1Cl`, the cytotoxicity at 70.5 h was 20.3%. Take `O=C1CN([C@@H]2CC[C@@H](NS(=O)(=O)c3ccccc3)[C@H]2O)CCN1`: the cytotoxicity at 70.5 h is -2.13%.

Consider `CS(=O)(=O)N1C[C@@H]2CCN(C(=O)c3cscn3)[C@@H]2C1`, for which the cytotoxicity at 70.5 h was -2.23%. As for `O=C(NCCCn1cncn1)N1CCCCCC1`, the cytotoxicity at 70.5 h was found to be 1.12%. Turning to `COc1c(C(=O)N2CCOC(c3cccs3)C2)c(C)nn1C` (centres undefined), the cytotoxicity at 70.5 h is -5.91%. Take `COc1ccc2cc(C3CN(C(=O)N(C)C)CCO3)ccc2c1` (centres undefined): the cytotoxicity at 70.5 h stood at 26.1%. Turning to `COc1cc2c(nn1)CCN(Cc1nc(Cc3ccccc3)no1)C2`, the cytotoxicity at 70.5 h turned out to be 2.14%. As for `Cc1ccc(CN2CCC3(CC2)C(=O)N(CCO)CCN3C)o1`, the cytotoxicity at 70.5 h is -3.64%.

As to `O=C(CCOc1ccccc1F)N1CCOCC1`, the cytotoxicity at 70.5 h was found to be 44.2%. Consider `COCC(Nc1nc(N(C)C)nc2c1CCNCC2)c1ccccn1` (centres undefined), for which the cytotoxicity at 70.5 h came to 4.09%. As to `COCCn1cncc1CN1CCCC(C(=O)Cc2ccccc2)C1` (centres undefined), the cytotoxicity at 70.5 h was determined as 0.198%.

For `Cc1cc2cc(C(=O)N3CC[C@H](O)[C@]4(CCCO4)C3)ccc2o1`, the cytotoxicity at 70.5 h was -18.1%. For the compound `Cc1noc(CNc2cccc(C(=O)N3CCCC(O)C3)c2)n1` (centres undefined), the cytotoxicity at 70.5 h is -6.36%.

`CC(=O)N(C)C(c1cccc(F)c1)c1ccccn1` (centres undefined): the cytotoxicity at 70.5 h amounted to 8.62%. On to `CC(C)CC1SCC(=O)Nc2c1cnn2-c1ccc(F)cc1` (centres undefined), for which the cytotoxicity at 70.5 h was -6.67%. In the case of `CC(=O)N1CCN(c2ccc3ccc(C(=O)NC4CCCC4)cn23)CC1`, the cytotoxicity at 70.5 h is -14.6%. In the case of `CN(CC1Cc2ccccc2CN1C)C(=O)Cc1cccs1` (centres undefined), the cytotoxicity at 70.5 h was -6.46%. For the compound `Cc1cc(N(C)C)nc(C2(C)CCNCC2)n1`, the cytotoxicity at 70.5 h was 46.3%. In the case of `O=C(NCCC(=O)N1CCCc2ccccc21)c1c(F)cccc1F`, the cytotoxicity at 70.5 h is -12.4%. As for `Cc1cnn(CCC(=O)N(CC2CN(C)CCO2)c2nccs2)c1` (centres undefined), the cytotoxicity at 70.5 h was -12.8%. As to `CCN(Cc1nonc1C)C(=O)Cn1nc(C(F)(F)F)cc1C1CC1`, the cytotoxicity at 70.5 h was -5.16%. In the case of `O=C(c1ccncc1F)N1C[C@@H]2OCCN(CC3CC3)[C@@H]2C1`, the cytotoxicity at 70.5 h is -12.9%. Turning to `CCOc1ccc2cc(C(=O)NCCNc3ccc(C)nn3)[nH]c2c1`, the cytotoxicity at 70.5 h was -8.09%. Take `Cc1nn(C)c(Cl)c1C(=O)NCC(c1ccsc1)N(C)C` (centres undefined): the cytotoxicity at 70.5 h was -21.3%. In the case of `CCOc1ncccc1C(=O)N1CCCC1Cn1nc(C)cc1C` (centres undefined), the cytotoxicity at 70.5 h worked out at 5.47%.

In the case of `COCCO[C@@H]1CCN(C(=O)c2ccc(C)o2)[C@@H]1Cc1cnn(C)c1`, the cytotoxicity at 70.5 h was -2.12%. Take `Cc1cc(N2CCC3(CCCN(CCO)C3=O)C2)nc2cc(Cl)ccc12` (centres undefined): the cytotoxicity at 70.5 h was -19.8%. For the compound `Cc1cc(C)nc(N2CCOC(C)(C(=O)N(C)C)C2)n1` (centres undefined), the cytotoxicity at 70.5 h is -4.59%.

Regarding `COCCNC(=O)C1CCCN1S(=O)(=O)c1sc(=O)[nH]c1C` (centres undefined), the cytotoxicity at 70.5 h was -6.44%.

As to `Cc1c(C(=O)NCCC2CN(C)CCO2)n(C)c2c(C)cccc12` (centres undefined), the cytotoxicity at 70.5 h was -27%. As to `O=C(Nc1cc(C2CCOCC2)[nH]n1)c1ccc(Cl)cn1`, the cytotoxicity at 70.5 h is -1.48%. On to `CS(=O)(=O)c1ccc(O[C@H]2COCCN(C(=O)c3ccno3)C2)cc1`, for which the cytotoxicity at 70.5 h was -2.76%. As for `CC(C)C(=O)N1CCCC12CCCN(C(=O)c1ccno1)C2` (centres undefined), the figure is 13.3%; as for `c1cncc(C2COC3(CCN(Cc4ccsc4)CC3)C2)c1` (centres undefined), -3.18%. For the compound `O=C(CN1CCOCC1)N1CCN(C2CCc3ccc(F)cc32)CC1` (centres undefined), the cytotoxicity at 70.5 h is -4.68%. For `COCCN1CCC2(CC1)CC(c1cccnc1)C(=O)N2C` (centres undefined), the cytotoxicity at 70.5 h came to 1.48%. As for `O=c1[nH]c(-c2ccncc2)ncc1-c1ccnc(NC2CC2)n1`, the cytotoxicity at 70.5 h was 23.6%. As for `Cn1nc(-c2ccccc2)c(Cl)c1C(=O)O`, the cytotoxicity at 70.5 h was -25.8%. With `Cc1nccc(NCc2cncc3c2CCN(S(C)(=O)=O)C3)n1`, the cytotoxicity at 70.5 h is 1.9%. Consider `CN1CC(C(=O)NCCc2ccc(F)c(Br)c2)CC1=O` (centres undefined), for which the cytotoxicity at 70.5 h was -8.01%. Regarding `O=C(c1cc2cccc(F)c2[nH]1)N1C[C@@H](O)[C@H](N2CCOCC2)C1`, the cytotoxicity at 70.5 h is -5.87%. As for `Cc1ccc(C#N)c(N2CCC3(CCC(=O)N(CC(N)=O)C3)CC2)n1`, the figure is -9.24%; as for `CC(c1cccs1)N(C)Cc1cnc(-c2ccccn2)nc1` (centres undefined), 3.52%; as for `CC(C)C(C)NC(=O)Nc1cccn(C)c1=O` (centres undefined), 4.29%. With `Cc1nnc(C2CCN(c3ncccn3)CC2)o1`, the cytotoxicity at 70.5 h was -15%. Regarding `CC(C)CN1CCC(c2nnc(CN3CCCC3)n2C2CC2)CC1`, the cytotoxicity at 70.5 h was -6.17%. On to `O=C(NC1CCN(c2cccc(OC(F)(F)F)c2)C1=O)C1CCC1` (centres undefined), for which the cytotoxicity at 70.5 h was -2.94%.

For `CC(=O)N1CCC(c2ncc(C(=O)Nc3ccccc3)c(C)n2)CC1`, the cytotoxicity at 70.5 h is -4.36%. Turning to `CCN1CC2(CC1=O)CN(C(C)=O)CCN(S(C)(=O)=O)C2` (centres undefined), the cytotoxicity at 70.5 h is -13.4%. In the case of `CC(NC(=O)CCn1cncn1)c1nnc2n1CCCCC2` (centres undefined), the cytotoxicity at 70.5 h is -13.5%. As for `Cc1ccccc1SC1CCN(C(=O)[C@H]2[C@@H]3CNC[C@@H]32)CC1`, the figure is -1.38%; as for `COc1cccc([C@@H]2N[C@H](c3nccs3)Cc3ccsc32)c1OC`, -12.9%.

For the compound `CCN(CC)Cc1cc(C(=O)N2CCCC(CC)(C(=O)O)C2)c(C)o1` (centres undefined), the cytotoxicity at 70.5 h was -3.17%. Next, `COCCn1cncc1CN1CCCC(C)(c2ccccc2)C1` (centres undefined): 18%. Consider `CCn1nc(C)c(CN(CCOC)C(=O)c2cnc(C)nc2O)c1C`, for which the cytotoxicity at 70.5 h is -6.8%. Regarding `COc1ccc(CNC(=O)C2=NN(c3ccc(C)cc3)C(=O)CN2)cc1`, the cytotoxicity at 70.5 h is -5.36%.

As to `COc1cccc2ccc(CN3CCN(c4ccncc4)CC3)nc12`, the cytotoxicity at 70.5 h was -9.89%. Next, `O=C(c1c[nH]c(=O)[nH]c1=O)N1CCCC(c2nccn2CC2CCC2)C1` (centres undefined): -24.3%; `O=C1CC(c2ccc3c(c2)OCO3)c2cnn(C3CCCC3)c2N1` (centres undefined): -15.7%; `COc1ccnc(N2CCN(C(=O)NCc3ccc(C)s3)CC2)n1`: 1.2%. For the compound `CC(=O)NCC(=O)N1CCOC(c2cccc(N)n2)C1` (centres undefined), the cytotoxicity at 70.5 h is 15.3%. `CCc1ncc(CNCc2cccnc2N(C)C)cn1`: the cytotoxicity at 70.5 h is -12.1%. On to `COc1ccc(CCC(=O)N2CCNCC2C(=O)N2CCCC2)cc1` (centres undefined), for which the cytotoxicity at 70.5 h was -6.16%. With `CNC(=O)N1CCN(C(=O)N(C)C)CC2(CC(=O)N(C)C2)C1` (centres undefined), the cytotoxicity at 70.5 h was -20%. As for `CC(NC(=O)NCCn1ccnc1)c1nncn1C` (centres undefined), the figure is 20.5%.

As for `Cn1cc(CCNC(=O)N2CCCC(c3nncn3C)C2)cn1` (centres undefined), the cytotoxicity at 70.5 h is -4.93%. Turning to `CC(C(=O)NCc1ccc(-n2cncn2)nc1)n1ccnc1` (centres undefined), the cytotoxicity at 70.5 h is -18%.

`CN1CC2(CCCN(Cc3nnc(-c4ccco4)o3)CC2)OC1=O` (centres undefined): the cytotoxicity at 70.5 h is -0.887%. With `COc1ccc(C2=CCN(C(=O)CN(C)CC(N)=O)CC2)cc1`, the cytotoxicity at 70.5 h was -2.43%. For the compound `CCc1nc(CNc2ccc(C(=O)N3CCSCC3)cc2C)no1`, the cytotoxicity at 70.5 h was -6.1%. For `c1ccc2oc(CCCN3CCCCC3Cn3cncn3)nc2c1` (centres undefined), the cytotoxicity at 70.5 h is -7.94%.

For `CCCC(NC(=O)c1cc(C)n(C2CC2)c1C)c1nnn[nH]1` (centres undefined), the cytotoxicity at 70.5 h is -0.607%. In the case of `N#Cc1cn[nH]c1NCc1cc(Cl)cc(Cl)c1O`, the cytotoxicity at 70.5 h worked out at 17.4%. `NC(=O)CN1CCC(C(=O)NCCn2cc(Cl)cn2)CC1`: the cytotoxicity at 70.5 h was 3.62%. For the compound `Cc1nnsc1C(=O)N1CCCC(c2nccn2Cc2cscn2)C1` (centres undefined), the cytotoxicity at 70.5 h was -0.672%.

`CS(=O)(=O)CCCNCc1c(Cl)cccc1N1CCCC1`: the cytotoxicity at 70.5 h is -10.5%.

In the case of `c1csc(CN2CCO[C@H]3[C@H](OCC4CCCC4)CC[C@@H]32)n1`, the cytotoxicity at 70.5 h was -1.77%. Regarding `COCCn1cnnc1C1CCCN(c2cnccn2)C1` (centres undefined), the cytotoxicity at 70.5 h is -5.97%. Next, `O=C(Nc1cc(F)ccc1OCC1CCCO1)c1ccc(O)nc1` (centres undefined): -6.69%. As to `Cc1n[nH]c(C2CN(C(=O)c3ccc(=O)n(C)c3)CCO2)n1` (centres undefined), the cytotoxicity at 70.5 h came out at 25.4%. Take `CC(=O)N1CCN(Cc2nnc(C(C)(C)C)o2)CC1`: the cytotoxicity at 70.5 h was -8.04%. Next, `Cn1ccnc1CN1CCC(c2ccnc(-c3cccc(O)c3)c2)C1` (centres undefined): -1.18%. Regarding `Cc1ccc(-c2cccc(-c3ccn(CCN4CCCC4)n3)c2)nn1`, the cytotoxicity at 70.5 h was -6.29%. As for `O[C@@]1(c2ccccn2)CC[C@H]2CN(Cc3cccc(Cl)c3Cl)C[C@H]21`, the figure is -10.2%.
